The assay relates to BDF1 mice, P388 leukemia ip, median survival T/C. Description: NCI In Vivo Anticancer Drug Screen. Data for tumor model P388 Leukemia (intraperitoneal) in B6D2F1 (BDF1) mice. The note with it: endpoint: median survival time, higher = longer survival. The procedure, abridged:
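Mice carrying the transplantable tumour receive compound or vehicle. Survival is followed in each arm, and the treated measure is divided by the vehicle measure.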

The mark [1] stands for this setting: dose: 100.0 mg/kg/injection, schedule: Q01DX009 (ip), vehicle: saline with Tween-80.
Where [2] appears, read: dose: 200.0 mg/kg/injection, schedule: Q01DX009 (ip), vehicle: saline with Tween-80.
Setting [3] is: dose: 25.0 mg/kg/injection, schedule: Q01DX009 (ip), vehicle: saline with Tween-80.
Setting [4] is: dose: 50.0 mg/kg/injection, schedule: Q01DX009 (ip), vehicle: saline with Tween-80.
[5] abbreviates: dose: 12.5 mg/kg/injection, schedule: Q01DX009 (ip), vehicle: saline.
[6] abbreviates: dose: 25.0 mg/kg/injection, schedule: Q01DX009 (ip), vehicle: saline.
The mark [7] stands for this setting: dose: 50.0 mg/kg/injection, schedule: Q01DX009 (ip), vehicle: saline.
Where [8] appears, read: dose: 100.0 mg/kg/injection, schedule: Q01DX009 (ip), vehicle: saline.
Where [9] appears, read: dose: 100.0 mg/kg/injection, schedule: Q04DX003 (ip), vehicle: saline with Tween-80.
Setting [10] is: dose: 150.0 mg/kg/injection, schedule: Q04DX003 (ip), vehicle: saline with Tween-80.
Setting [11] is: dose: 200.0 mg/kg/injection, schedule: Q04DX003 (ip), vehicle: saline with Tween-80.
Setting [12] is: dose: 400.0 mg/kg/injection, schedule: Q04DX003 (ip), vehicle: saline with Tween-80.
The mark [13] stands for this setting: dose: 40.0 mg/kg/injection, schedule: Q01DX010 (ip), vehicle: saline.
[14] abbreviates: dose: 12.5 mg/kg/injection, schedule: Q01DX009 (ip), vehicle: saline with Tween-80.
[15] abbreviates: dose: 100.0 mg/kg/injection, schedule: Q04DX003 (ip), vehicle: saline.
The mark [16] stands for this setting: dose: 100.0 mg/kg/injection, schedule: Q04DX003 (ip), vehicle: Klucel (hydroxypropylcellulose) (HPC).
[17] abbreviates: dose: 200.0 mg/kg/injection, schedule: Q04DX003 (ip), vehicle: Klucel (hydroxypropylcellulose) (HPC).
Setting [18] is: dose: 400.0 mg/kg/injection, schedule: Q04DX003 (ip), vehicle: Klucel (hydroxypropylcellulose) (HPC).
Where [19] appears, read: dose: 100.0 mg/kg/injection, schedule: Q01DX009 (ip), vehicle: Klucel (hydroxypropylcellulose) (HPC).

The values that follow come from PubChem BioAssay AID328 (DTP/NCI, 2004).

Values joined by “and” are separate entries in the source; they are usually repeats but may differ in a detail not shown here. Equal entries are not always repeated. Toxic doses and inconclusive results are not listed.

`C[C@H]1/C(=C/C(=O)OCCN(C)C)CC[C@H]2[C@H]1C(=O)C[C@H]1C(C)(C)[C@@H](O)CC[C@]21C`: the T/C (dose: 4.0 mg/kg/injection, schedule: Q01DX010 (ip), vehicle: saline) was 100 % of control; the T/C (dose: 8.0 mg/kg/injection, schedule: Q01DX010 (ip), vehicle: saline) is 100 % of control; the T/C (dose: 16.0 mg/kg/injection, schedule: Q01DX010 (ip), vehicle: saline) was 104 % of control; the T/C (dose: 32.0 mg/kg/injection, schedule: Q01DX010 (ip), vehicle: saline) was 95 % of control and 104 % of control.

For `O=C(/C=C/c1ccc(F)cc1)c1ccc(Cl)cc1`, the T/C runs as follows: under setting [1], 90 % of control; under setting [2], 90 % of control; (dose: 400.0 mg/kg/injection, schedule: Q01DX009 (ip), vehicle: saline with Tween-80) 100 % of control.

In the case of `CCCCCC1=NC(C)(C(=O)OC)OO1` (stereo unspecified), the T/C is 114 % of control under setting [3] and 112 % of control under setting [4].

For the compound `NNc1cc(N)[nH]n1`, the T/C under setting [5] was 106 % of control, the T/C under setting [6] was 100 % of control, the T/C under setting [7] is 100 % of control and the T/C under setting [8] is 93 % of control.

Take `Cc1nc(N)c(Cl)nc1C`: the T/C runs as follows: (dose: 50.0 mg/kg/injection, schedule: Q04DX003 (ip), vehicle: saline with Tween-80) 102 % of control and 104 % of control; under setting [9], 103 % of control; under setting [10], 103 % of control; under setting [11], 95 % of control and 104 % of control; under setting [12], 104 % of control.

As for `Cc1n[nH]c(=O)c2c3ccccc3nn12`, the T/C (dose: 100.0 mg/kg/injection, schedule: Q04DX002 (ip), vehicle: saline with Tween-80) is 103 % of control; the T/C (dose: 200.0 mg/kg/injection, schedule: Q04DX002 (ip), vehicle: saline with Tween-80) is 110 % of control; the T/C (dose: 400.0 mg/kg/injection, schedule: Q04DX002 (ip), vehicle: saline with Tween-80) was 107 % of control.

On to `COc1ccc(-c2oc3cc(O)cc(O)c3c(=O)c2OC)cc1O`, for which the T/C runs as follows: (dose: 10.0 mg/kg/injection, schedule: Q01DX010 (ip), vehicle: saline) 100 % of control; (dose: 20.0 mg/kg/injection, schedule: Q01DX010 (ip), vehicle: saline) 100 % of control; under setting [13], 109 % of control.

In the case of `O=C1NC2NC(=O)NC2N1` (stereo unspecified), the T/C under setting [9] is 100 % of control, the T/C under setting [11] is 100 % of control and the T/C under setting [12] was 104 % of control.

`O=C(Nc1cccc2c1C(=O)c1cccc(NC(=O)c3ccc(C(=O)Nc4cccc5c4C(=O)c4cccc(NC(=O)c6ccccc6)c4C5=O)cc3)c1C2=O)c1ccccc1`: the T/C is 92 % of control (dose: 6.25 mg/kg/injection, schedule: Q01DX009 (ip), vehicle: saline with Tween-80); 107 % of control under setting [14]; 111 % of control under setting [3].

`CN(C)NC1OC(C(O)S(=O)(=O)O)C(OCc2ccccc2)C(OCc2ccccc2)C1O` (stereo unspecified): the T/C was 109 % of control under setting [4], 98 % of control under setting [1] and 94 % of control under setting [2].

Consider `COc1cc2c3c(c1O)Oc1ccc(cc1)C[C@@H]1c4c(cc(OC)c(O)c4Oc4ccc(cc4)C[C@H]3N(C)CC2)CCN1C`, for which the T/C by setting is: under setting [13], 95 % of control; (dose: 80.0 mg/kg/injection, schedule: Q01DX010 (ip), vehicle: saline) 100 % of control; (dose: 160.0 mg/kg/injection, schedule: Q01DX010 (ip), vehicle: saline) 105 % of control; (dose: 320.0 mg/kg/injection, schedule: Q01DX010 (ip), vehicle: saline) 90 % of control.

As to `COc1ccc2c(c1)CCNC2CCO` (stereo unspecified), the T/C by setting is: (dose: 25.0 mg/kg/injection, schedule: Q04DX003 (ip), vehicle: saline) 120 % of control; (dose: 50.0 mg/kg/injection, schedule: Q04DX003 (ip), vehicle: saline) 110 % of control; under setting [15], 120 % of control.

`Nc1cc(C(=O)Nc2ccc(C3=NCCN3)cc2)ccc1C(=O)Nc1ccc(C2=NCCN2)cc1`: the T/C is 158 % of control (dose: 1.4 mg/kg/injection, schedule: Q01DX009 (ip), vehicle: saline with Tween-80); 154 % of control (dose: 2.2 mg/kg/injection, schedule: Q01DX009 (ip), vehicle: saline with Tween-80); 154 % of control and 200 % of control (dose: 3.3 mg/kg/injection, schedule: Q01DX009 (ip), vehicle: saline with Tween-80); 191 % of control (dose: 5.0 mg/kg/injection, schedule: Q01DX009 (ip), vehicle: saline with Tween-80); 230 % of control (dose: 8.0 mg/kg/injection, schedule: Q01DX009 (ip), vehicle: saline with Tween-80); 230 % of control (dose: 12.0 mg/kg/injection, schedule: Q01DX009 (ip), vehicle: saline with Tween-80). The T/C is, setting by setting: under setting [14], 230 % of control; (dose: 13.0 mg/kg/injection, schedule: Q04DX003 (ip), vehicle: saline with Tween-80) 170 % of control; (dose: 20.0 mg/kg/injection, schedule: Q04DX003 (ip), vehicle: saline with Tween-80) 208 % of control; under setting [3], 230 % of control; (dose: 30.0 mg/kg/injection, schedule: Q04DX003 (ip), vehicle: saline with Tween-80) 250 % of control and 181 % of control; (dose: 44.0 mg/kg/injection, schedule: Q04DX003 (ip), vehicle: saline with Tween-80) 272 % of control. Moreover, the T/C under setting [4] was 92 % of control; the T/C (dose: 66.0 mg/kg/injection, schedule: Q04DX003 (ip), vehicle: saline with Tween-80) is 229 % of control and 272 % of control; the T/C under setting [9] is 166 % of control and 204 % of control; the T/C under setting [10] was 100 % of control; the T/C under setting [11] was 100 % of control.

On to `CC1(C)OCC(C2OC3OC(C)(C)OC3C2O)O1` (stereo unspecified), for which the T/C reads like this: (dose: 20.0 mg/kg/injection, schedule: Q01DX009 (ip), vehicle: saline) 107 % of control; (dose: 40.0 mg/kg/injection, schedule: Q01DX009 (ip), vehicle: saline) 109 % of control; (dose: 80.0 mg/kg/injection, schedule: Q01DX009 (ip), vehicle: saline) 108 % of control.

Consider `Cc1cc(C)cc(C(O)(c2cc(C)cc(C)c2)c2cc(C)cc(C)c2)c1`, for which the T/C reads like this: under setting [16], 100 % of control; under setting [17], 90 % of control; under setting [18], 110 % of control.

Regarding `ClC(c1ccccc1)C1(Br)C=c2ccccc2=C1` (stereo unspecified), the T/C runs as follows: (dose: 50.0 mg/kg/injection, schedule: Q01DX009 (ip), vehicle: Klucel (hydroxypropylcellulose) (HPC)) 95 % of control; (dose: 50.0 mg/kg/injection, schedule: Q04DX003 (ip), vehicle: Klucel (hydroxypropylcellulose) (HPC)) 95 % of control; under setting [19], 90 % of control; under setting [16], 91 % of control; under setting [17], 100 % of control.

As for `COc1ccc(C2(C#N)CCCCC2)cc1`, the T/C is 104 % of control under setting [19]; 95 % of control under setting [16]; 91 % of control (dose: 200.0 mg/kg/injection, schedule: Q01DX009 (ip), vehicle: Klucel (hydroxypropylcellulose) (HPC)); 108 % of control under setting [17]; 108 % of control (dose: 400.0 mg/kg/injection, schedule: Q01DX009 (ip), vehicle: Klucel (hydroxypropylcellulose) (HPC)); 91 % of control under setting [18].

Turning to `CCN1CCC(O)(c2ccc(Br)cc2)C1` (stereo unspecified), the T/C is, setting by setting: under setting [7], 106 % of control; under setting [8], 97 % of control.

In the case of `CCCNc1ncnc2c1cnn2C`, the T/C runs as follows: under setting [5], 88 % of control; under setting [6], 112 % of control; under setting [7], 108 % of control; under setting [15], 120 % of control; (dose: 200.0 mg/kg/injection, schedule: Q04DX003 (ip), vehicle: saline) 120 % of control.
